{"source": "patent US8246984B2", "about": "“Formulation of insoluble small molecule therapeutics in lipid-based carriers” (Rigel Pharmaceuticals, Inc., priority 2005, dated 2012)", "origin": "cited, not measured here", "data": [{"settings": "transition temperature, gel to liquid crystalline phase", "units": {"Tm": "°C"}, "values": [{"smiles": "CCCCCCCCCCCCCC(=O)OC[C@H](COP(=O)([O-])OCC[N+](C)(C)C)OC(=O)CCCCCCCCCCCCC", "note": "[Dimyristoylphosphatidylcholine]", "Tm": 23}, {"smiles": "CCCCCCCC/C=C\\CCCCCCCC(=O)OC[C@H](COP(=O)([O-])OCC[N+](C)(C)C)OC(=O)CCCCCCC/C=C\\CCCCCCCC", "note": "[Dioleoylphosphatidylcholine, 1,2-dioleoyl-sn-glycero-3-phosphocholine]", "Tm": "−22"}, {"smiles": "CCCCCCCCCCCCCCCC(=O)OC[C@H](COP(=O)([O-])OCC[N+](C)(C)C)OC(=O)CCCCCCCCCCCCCCC", "note": "[Dipalmitoylphosphatidylcholine]", "Tm": 41}, {"smiles": "CCCCCCCCCCCCCCCCCC(=O)OC[C@H](COP(=O)([O-])OCC[N+](C)(C)C)OC(=O)CCCCCCCCCCCCCCCCC", "note": "[Distearoylphosphatidylcholine]", "Tm": 55}]}]}
